For orientation: EC50 means the midpoint of the concentration-response curve.

Structures are written as SMILES. Where a name gives a salt, the structure may show the parent alone. Bounds are passed on as bounds.

T1 sequence (P13569 with tags, fused parts or gaps DEL508-508): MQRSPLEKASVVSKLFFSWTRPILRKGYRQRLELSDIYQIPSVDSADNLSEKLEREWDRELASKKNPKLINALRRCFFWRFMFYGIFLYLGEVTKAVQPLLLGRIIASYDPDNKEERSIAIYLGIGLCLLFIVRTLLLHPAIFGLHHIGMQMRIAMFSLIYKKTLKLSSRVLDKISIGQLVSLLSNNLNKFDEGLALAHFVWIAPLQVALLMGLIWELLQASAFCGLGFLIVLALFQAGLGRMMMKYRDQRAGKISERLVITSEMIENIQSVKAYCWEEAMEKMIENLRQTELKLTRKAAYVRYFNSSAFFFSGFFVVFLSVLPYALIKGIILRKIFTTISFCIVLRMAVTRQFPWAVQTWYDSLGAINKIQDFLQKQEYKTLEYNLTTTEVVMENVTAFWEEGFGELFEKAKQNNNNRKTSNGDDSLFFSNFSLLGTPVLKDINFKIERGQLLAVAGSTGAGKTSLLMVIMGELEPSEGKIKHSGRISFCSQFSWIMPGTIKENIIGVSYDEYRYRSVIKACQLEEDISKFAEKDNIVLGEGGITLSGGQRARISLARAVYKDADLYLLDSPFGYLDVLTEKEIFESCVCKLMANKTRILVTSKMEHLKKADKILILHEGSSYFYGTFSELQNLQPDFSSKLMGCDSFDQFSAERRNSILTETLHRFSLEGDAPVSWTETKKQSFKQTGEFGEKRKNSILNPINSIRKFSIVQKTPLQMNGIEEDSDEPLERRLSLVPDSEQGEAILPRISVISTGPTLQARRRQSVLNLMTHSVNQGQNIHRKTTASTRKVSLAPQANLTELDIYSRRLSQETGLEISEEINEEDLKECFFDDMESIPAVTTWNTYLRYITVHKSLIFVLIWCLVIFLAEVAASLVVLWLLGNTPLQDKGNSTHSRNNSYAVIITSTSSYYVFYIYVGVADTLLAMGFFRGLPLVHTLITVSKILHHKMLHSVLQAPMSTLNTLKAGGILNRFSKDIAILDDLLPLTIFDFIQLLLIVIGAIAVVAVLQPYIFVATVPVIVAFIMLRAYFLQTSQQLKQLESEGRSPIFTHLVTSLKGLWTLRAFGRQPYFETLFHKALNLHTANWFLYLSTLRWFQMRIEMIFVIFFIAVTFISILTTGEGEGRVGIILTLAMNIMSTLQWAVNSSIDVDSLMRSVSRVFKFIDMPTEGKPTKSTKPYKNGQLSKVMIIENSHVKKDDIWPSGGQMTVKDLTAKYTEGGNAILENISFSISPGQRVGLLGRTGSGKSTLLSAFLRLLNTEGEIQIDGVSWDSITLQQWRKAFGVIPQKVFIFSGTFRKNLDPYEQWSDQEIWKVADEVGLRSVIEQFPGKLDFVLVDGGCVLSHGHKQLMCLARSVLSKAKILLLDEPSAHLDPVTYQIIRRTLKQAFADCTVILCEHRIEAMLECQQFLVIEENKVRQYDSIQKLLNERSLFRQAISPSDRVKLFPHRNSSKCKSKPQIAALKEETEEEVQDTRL

This assay has as its target T1, mutant CFTR (Homo sapiens, UniProt P13569, DEL508-508).
T1 construct: expressed in transfected cells
In words: Fluorescence (HS-YFP) assay for CFTR activity, corrector assay. Format: cell-based. Conditions: CFBE41o- and FRT cells with stable expression of mutant CFTR, read-out: activity (EC50).
As to `Cc1nc2cc(F)c(NC(=O)c3cccc(-n4nc(C(F)(F)F)c5c4CCN(C)C5)c3)cc2o1` [Compound 047, N-(5-Fluoro-2-methyl-1,3-benzoxazol-6-yl)-3-[5-methyl-3-(trifluoromethyl)-6,7-dihydro-4H-pyrazolo[4,3-c]pyridin-1-yl]benzamide], the EC50 was over 2000 nM.
The result for `CN(C(=O)c1cccc(-n2nc(C(F)(F)F)c3c2CCOC3)c1)c1ccc2c(c1)OCO2` [Compound 054, N-(1,3-Benzodioxol-5-yl)-N-methyl-3-[3-(trifluoromethyl)-6,7-dihydro-4H-pyrano[4,3-c]pyrazol-1-yl]benzamide] reads under 1000 nM; that for `COC(=O)c1ccc(S(=O)(=O)N2CCc3c(c(C(F)(F)F)nn3-c3cccc(C(=O)N(C)c4ccc5c(c4)OCO5)c3)C2)cc1` [Compound 055, Methyl 4-[[1-[3-[1,3-benzodioxol-5-yl(methyl)carbamoyl]phenyl]-3-(trifluoromethyl)-6,7-dihydro-4H-pyrazolo[4,3-c]pyridin-5-yl]sulfonyl]benzoate], under 1000 nM.
Take `CNC(=O)N1CCc2c(c(C(F)(F)F)nn2-c2cccc(C(=O)N(C)c3ccc4c(c3)OCO4)c2)C1` [Compound 056, 1-[3-[1,3-Benzodioxol-5-yl(methyl)carbamoyl]phenyl]-N-methyl-3-(trifluoromethyl)-6,7-dihydro-4H-pyrazolo[4,3-c] pyridine-5-carboxamide]: the EC50 is under 1000 nM.
For the compound `CN(C(=O)c1cccc(-n2nc(C(F)(F)F)c3c2CCN(S(=O)(=O)c2ccc(C(=O)O)cc2)C3)c1)c1ccc2c(c1)OCO2` [Compound 057, 4-[[1-[3-[1,3-Benzodioxol-5-yl(methyl)carbamoyl]phenyl]-3-(trifluoromethyl)-6,7-dihydro-4H-pyrazolo[4,3-c]pyridin-5-yl]sulfonyl]benzoic acid], the EC50 is 1000 to 2000 nM.
Consider `CN(C(=O)c1cccc(-n2nc(C(F)(F)F)c3c2CCN(C(=O)C(C)(C)O)C3)c1)c1ccc2c(c1)OCO2` [Compound 058, N-(1,3-Benzodioxol-5-yl)-3-[5-(2-hydroxy-2-methyl-propanoyl)-3-(trifluoromethyl)-6,7-dihydro-4H-pyrazolo[4,3-c]pyridin-1-yl]-N-methyl-benzamide], for which the EC50 was under 1000 nM.
With `COC(=O)c1cccc(S(=O)(=O)N2CCc3c(c(C(F)(F)F)nn3-c3cccc(C(=O)N(C)c4ccc5c(c4)OCO5)c3)C2)c1` [Compound 059, Methyl 3-[[1-[3-[1,3-benzodioxol-5-yl(methyl)carbamoyl]phenyl]-3-(trifluoromethyl)-6,7-dihydro-4H-pyrazolo[4,3-c]pyridin-5-yl]sulfonyl]benzoate], the 50% effective concentration (EC50) is under 1000 nM.
Under `COC(=O)c1ccccc1S(=O)(=O)N1CCc2c(c(C(F)(F)F)nn2-c2cccc(C(=O)N(C)c3ccc4c(c3)OCO4)c2)C1` [Compound 060, Methyl 2-[[1-[3-[1,3-benzodioxol-5-yl(methyl)carbamoyl]phenyl]-3-(trifluoromethyl)-6,7-dihydro-4H-pyrazolo[4,3-c]pyridin-5-yl]sulfonyl]benzoate] stands under 1000 nM.
As to `CN(C(=O)c1cccc(-n2nc(C(F)(F)F)c3c2CCN(S(=O)(=O)c2cccc(C(=O)O)c2)C3)c1)c1ccc2c(c1)OCO2` [Compound 061, 3-[[1-[3-[1,3-Benzodioxol-5-yl(methyl)carbamoyl]phenyl]-3-(trifluoromethyl)-6,7-dihydro-4H-pyrazolo[4,3-c]pyridin-5-yl]sulfonyl]benzoic acid], the EC50 was over 2000 nM.
With `CN(C(=O)c1cccc(-n2nc(C(F)(F)F)c3c2CCN(S(=O)(=O)c2ccccc2C(=O)O)C3)c1)c1ccc2c(c1)OCO2` [Compound 062, 2-[[1-[3-[1,3-Benzodioxol-5-yl(methyl)carbamoyl]phenyl]-3-(trifluoromethyl)-6,7-dihydro-4H-pyrazolo[4,3-c]pyridin-5-yl]sulfonyl]benzoic acid], the EC50 is over 2000 nM.
Under `CN(C(=O)c1cccc(-n2nc(C(F)(F)F)c3c2CCN(S(=O)(=O)c2ccc(C#N)cc2)C3)c1)c1ccc2c(c1)OCO2` [Compound 063, N-(1,3-Benzodioxol-5-yl)-3-[5-(4-cyanophenyl)sulfonyl-3-(trifluoromethyl)-6,7-dihydro-4H-pyrazolo[4,3-c]pyridin-1-yl]-N-methyl-benzamide] stands under 1000 nM; under `Cc1nc(S(=O)(=O)N2CCc3c(c(C(F)(F)F)nn3-c3cccc(C(=O)N(C)c4ccc5c(c4)OCO5)c3)C2)cn1C` [Compound 064, N-(1,3-Benzodioxol-5-yl)-3-[5-(1,2-dimethylimidazol-4-yl)sulfonyl-3-(trifluoromethyl)-6,7-dihydro-4H-pyrazolo[4,3-c]pyridin-1-yl]-N-methyl-benzamide], under 1000 nM; under `CN(c1ccc2c(c1)OCO2)S(=O)(=O)c1cccc(-n2nc(C(F)(F)F)c3c2CCN(C(=O)OC(C)(C)C)C3)c1` [Compound 065, tert-Butyl 1-[3-[1,3-benzodioxol-5-yl(methyl)sulfamoyl]phenyl]-3-(trifluoromethyl)-6,7-dihydro-4H-pyrazolo[4,3-c]pyridine-5-carboxylate], over 2000 nM.
The result for `CN(c1ccc2c(c1)OCO2)S(=O)(=O)c1cccc(-n2nc(C(F)(F)F)c3c2CCNC3)c1` [Compound 066, N-(1,3-Benzodioxol-5-yl)-N-methyl-3-[3-(trifluoromethyl)-4,5,6,7-tetrahydropyrazolo[4,3-c]pyridin-1-yl] benzenesulfonamide hydrochloride] reads under 1000 nM; that for `Cc1noc(C)c1S(=O)(=O)N1CCc2c(c(C(F)(F)F)nn2-c2cccc(C(=O)N(C)c3ccc4c(c3)OCO4)c2)C1` [Compound 067, N-(1,3-benzodioxol-5-yl)-3-[5-(3,5-dimethylisoxazol-4-yl)sulfonyl-3-(trifluoromethyl)-6,7-dihydro-4H-pyrazolo[4,3-c]pyridin-1-yl]-N-methyl-benzamide], under 1000 nM; that for `COCCS(=O)(=O)N1CCc2c(c(C(F)(F)F)nn2-c2cccc(C(=O)N(C)c3ccc4c(c3)OCO4)c2)C1` [Compound 068, N-(1,3-benzodioxol-5-yl)-3-[5-(2-methoxyethylsulfonyl)-3-(trifluoromethyl)-6,7-dihydro-4H-pyrazolo[4,3-c]pyridin-1-yl]-N-methyl-benzamide], under 1000 nM.
With `Cc1n[nH]c(C)c1S(=O)(=O)N1CCc2c(c(C(F)(F)F)nn2-c2cccc(C(=O)N(C)c3ccc4c(c3)OCO4)c2)C1` [Compound 069, N-(1,3-Benzodioxol-5-yl)-3-[5-[(3,5-dimethyl-4H-pyrazol-4-yl)sulfonyl]-3-(trifluoromethyl)-6,7-dihydro-4H-pyrazolo[4,3-c]pyridin-1-yl]-N-methyl-benzamide], the EC50 is under 1000 nM.
For `COC(=O)c1ccc(S(=O)(=O)N2C3CCC2c2c(C(F)(F)F)nn(-c4cccc(C(=O)N(C)c5ccc6c(c5)OCO6)c4)c2C3)cc1` (centres unmarked) [Compound 070, Methyl 4-((1-(3-(benzo[d][1,3]dioxol-5-yl(methyl)carbamoyl)phenyl)-3-(trifluoromethyl)-1,4,5,6,7,8-hexahydro-4,7-epiminocyclohepta[c]pyrazol-9-yl)sulfonyl)benzoate], the EC50 is under 1000 nM.
With `CN1CCc2c(c(C(F)(F)F)nn2-c2cccc(S(=O)(=O)N(C)c3ccc4c(c3)OCO4)c2)C1` [Compound 071, N-(1,3-Benzodioxol-5-yl)-N-methyl-3-[5-methyl-3-(trifluoromethyl)-6,7-dihydro-4H-pyrazolo[4,3-c]pyridin-1-yl]benzenesulfonamide], the EC50 is over 2000 nM.
On to `CN(C(=O)c1cccc(-n2nc(C(F)(F)F)c3c2CN(C(=O)C(C)(C)C)CC3)c1)c1ccc2c(c1)OCO2` [Compound 072, N-(1,3-Benzodioxol-5-yl)-3-[6-(2,2-dimethylpropanoyl)-3-(trifluoromethyl)-5,7-dihydro-4H-pyrazolo[3,4-c]pyridin-1-yl]-N-methyl-benzamide], for which the concentration giving a half-maximal response (EC50) is under 1000 nM.
With `COC(=O)c1ccc(S(=O)(=O)N2CCc3c(C(F)(F)F)nn(-c4cccc(C(=O)N(C)c5ccc6c(c5)OCO6)c4)c3C2)cc1` [Compound 075, Methyl 4-[[1-[3-[1,3-benzodioxol-5-yl(methyl)carbamoyl]phenyl]-3-(trifluoromethyl)-5,7-dihydro-4H-pyrazolo[3,4-c]pyridin-6-yl]sulfonyl]benzoate], the EC50 was under 1000 nM.
`CN(C(=O)c1cccc(-n2nc(C(F)(F)F)c3c2CN(S(=O)(=O)c2ccc(C(=O)O)cc2)CC3)c1)c1ccc2c(c1)OCO2` [Compound 077, 4-[[1-[3-[1,3-Benzodioxol-5-yl(methyl)carbamoyl]phenyl]-3-(trifluoromethyl)-5,7-dihydro-4H-pyrazolo[3,4-c]pyridin-6-yl]sulfonyl]benzoic acid]: the EC50 was 1000 to 2000 nM.
With `Cc1nc2ccc(NC(=O)c3cccc(-n4nc(C(F)(F)F)c5c4CCN(C(=O)C(C)(C)C)C5)c3)cn2n1` [Compound 078, 3-[5-(2,2-Dimethylpropanoyl)-3-(trifluoromethyl)-6,7-dihydro-4Hpyrazolo[4,3-c]pyridin-1-yl]-N-(2-methyl-[1,2,4]triazolo[1,5-a]pyridin-6-yl)benzamide], the half-maximal effective concentration (EC50) is over 2000 nM.
Regarding `Cc1n[nH]c2ncc(NC(=O)c3cccc(-n4nc(C(F)(F)F)c5c4CCN(C(=O)C(C)(C)C)C5)c3)cc12` [Compound 079, 3-[5-(2,2-Dimethylpropanoyl)-3-(trifluoromethyl)-6,7-dihydro-4Hpyrazolo[4,3-c]pyridin-1-yl]-N-(3-methyl-1H-pyrazolo[3,4-b]pyridin-5-yl)benzamide], the 50% effective concentration (EC50) is over 2000 nM.
The result for `COc1ccc(NC(=O)c2cccc(-n3nc(C(F)(F)F)c4c3CCN(C(=O)C(C)(C)C)C4)c2)cn1` [Compound 080, 3-[5-(2,2-Dimethylpropanoyl)-3-(trifluoromethyl)-6,7-dihydro-4Hpyrazolo[4,3-c]pyridin-1-yl]-N-(6-methoxy-3-pyridyl)benzamide] reads over 2000 nM; that for `COc1ncc(NC(=O)c2cccc(-n3nc(C(F)(F)F)c4c3CCN(C(=O)C(C)(C)C)C4)c2)cn1` [Compound 081, 3-[5-(2,2-Dimethylpropanoyl)-3-(trifluoromethyl)-6,7-dihydro-4H-pyrazolo[4,3-c]pyridin-1-yl]-N-(2-methoxypyrimidin-5-yl)benzamide], over 2000 nM.
